Test results: patent publication US12479843B2, “Spiro ring-containing quinazoline compounds” (WIGEN BIOMEDICINE TECHNOLOGY (SHANGHAI) CO., LTD., priority 2019, dated 2025)

Assays:
[1] = test system: H358 cells; test: Antiproliferative activity against H358 cells (Cell Titer Glow, ultra-low attachment plate); type: cell-based; conditions: Homo sapiens, NCI-H358, 72 h, 96-well ultra-low attachment plate, three days after addition of compound, Cell Titer Glow
Method: 2500 H358 cells were seeded in a 96-well ultra-low attachment plate (corning, 7007). After one day of growth, a serially diluted compound (a maximum concentration of 5 μM, 5-fold dilution, a total of five doses) was added. Three days after the addition of the compound, Cell Titer Glow (Promega, G9681) was added to evaluate pellet growth, and the IC50 value was calculated.

[2] = test system: pERK level in H358 cells; test: pERK and ERK protein content assay in H358 cells (ELISA); type: cell-based; conditions: Homo sapiens, NCI-H358, compound 1 μM, 24 h, pERK/ERK ratio compared with DMSO group, read-out: Inhibition rate (%) of pERK level
Outline: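 Percent inhibition of pERK relative to DMSO, from the ELISA pERK/ERK ratio in lysed H358 cells. Compound applied at 1 μM for 24 h after one day of growth.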

SMILES	IC50 [1] [nM]	inhibition at 1 µM [2] [%]
C=CC(=O)N1CC2(CCN(c3nc(OC4CCN(CCOC)CC4)nc4c(OCC(F)(F)F)c(-c5c(C)ccc6[nH]ncc56)c(Cl)cc34)CC2)C1 [Compound 12]	< 300	> 90
C=CC(=O)N1CC2(CCN(c3nc(N4CC[C@@H](N5CCC5)C4)nc4c(OCC(F)(F)F)c(-c5c(C)ccc6[nH]ncc56)c(C5CC5)cc34)CC2)C1 [Compound 182]	< 300	> 90
C=CC(=O)N1CC2(CCN(c3nc(N4CC[C@@H](N(CC)CC)C4)nc4c(OCC(F)(F)F)c(-c5c(C)ccc6[nH]ncc56)c(C5CC5)cc34)CC2)C1 [Compound 190]	< 300	> 90
C=CC(=O)N1CC2(CCN(c3nc(N4CC(N5C[C@H](OC)[C@@H](F)C5)C4)nc4c(OCC(F)(F)F)c(-c5c(C)ccc6[nH]ncc56)c(C5CC5)cc34)CC2)C1 [Compound 263]	< 300	> 90
C=CC(=O)N1CC2(CCN(c3nc(N4CCC5(CCN(CCOC)CC5)C4)nc4c(OCC(F)(F)F)c(-c5c(C)ccc6[nH]ncc56)c(C5CC5)cc34)CC2)C1 [Compound 101]	< 300	> 90
C=CC(=O)N1CC2(CCN(c3nc(N4CC(N5CCC(F)(F)C5)C4)nc4c(OCC(F)(F)F)c(-c5c(C)ccc6[nH]ncc56)c(C5CC5)cc34)CC2)C1 [Compound 176]	300 to 1000	50 to 90
C=CC(=O)N1CC2(CCN(c3nc(N4CC5(CCN(CCOC)CC5)C4)nc4c(OCC(F)(F)F)c(-c5c(C)ccc6[nH]ncc56)c(C5CC5)cc34)CC2)C1 [Compound 91]	< 300	> 90
C=CC(=O)N1CC2(CCN(c3nc(N4CC5(COC5)C4)nc4c(OCC(F)(F)F)c(-c5c(C)ccc6[nH]ncc56)c(C5CC5)cc34)CC2)C1 [Compound 67]	300 to 1000	50 to 90
C=CC(=O)N1CC2(CCN(c3nc(N4CC(N5CC[C@@H](N(C)C)C5)C4)nc4c(OCC(F)(F)F)c(-c5c(C)ccc6[nH]ncc56)c(C5CC5)cc34)CC2)C1 [Compound 256]	< 300	> 90
C=C(F)C(=O)N1CC2(CCN(c3nc(N4CC5(CCN(CCOC)CC5)C4)nc4c(OCC(F)(F)F)c(-c5c(C)ccc6[nH]ncc56)c(C5CC5)cc34)CC2)C1 [Compound 92]	< 300	> 90
C=CC(=O)N1CC2(CCN(c3nc(N4CC(N5C[C@H](F)[C@H](OC)C5)C4)nc4c(OCC(F)(F)F)c(-c5c(C)ccc6[nH]ncc56)c(C5CC5)cc34)CC2)C1 [Compound 264]	< 300	> 90
C=C(F)C(=O)N1CC2(CCN(c3nc(N4CC(N5CC(OC)C5)C4)nc4c(OCC(F)(F)F)c(-c5c(C)ccc6[nH]ncc56)c(C5CC5)cc34)CC2)C1 [Compound 145]	< 300	> 90
C=C(F)C(=O)N1CC2(CCN(c3nc(OC4CCN(CCOC)CC4)nc4c(OCC(F)(F)F)c(-c5c(N)cccc5F)c(C5CC5)cc34)CC2)C1 [Compound 48]	300 to 1000	> 90
C=C(F)C(=O)N1CC2(CCN(c3nc(N4CC5(CCN(CC6CC6)CC5)C4)nc4c(OCC(F)(F)F)c(-c5c(C)ccc6[nH]ncc56)c(C5CC5)cc34)CC2)C1 [Compound 84]	< 300	> 90
C=CC(=O)N1CC2(CCN(c3nc(N4CC5(CCN(C)CC5)C4)nc4c(OCC(F)(F)F)c(-c5c(C)ccc6[nH]ncc56)c(C5CC5)cc34)CC2)C1 [Compound 77]	300 to 1000	50 to 90
C=CC(=O)N1CC2(CCN(c3nc(N4CC(N5CCCC5)C4)nc4c(OCC(F)(F)F)c(-c5c(C)ccc6[nH]ncc56)c(C=C)cc34)CC2)C1 [Compound 337]	< 300	> 90

SMILES	IC50 [1] [nM]	inhibition at 1 µM [2] [%]
C=CC(=O)N1CC2(CCN(c3nc(N4CC(N5CCC[C@H]5CO)C4)nc4c(OCC(F)(F)F)c(-c5c(C)ccc6[nH]ncc56)c(C5CC5)cc34)CC2)C1 [Compound 252]	< 300	> 90
C=CC(=O)N1CC2(CCN(c3nc(N4CC[C@H](N5CCC(F)CC5)C4)nc4c(OCC(F)(F)F)c(-c5c(C)ccc6[nH]ncc56)c(C5CC5)cc34)CC2)C1 [Compound 211]	< 300	> 90
C=CC(=O)N1CC2(CCN(c3nc(N4CC(N5CCCC5)C4)nc4c(OCC(F)(F)F)c(-c5c(C)c(C)cc6[nH]ncc56)c(C5CC5)cc34)CC2)C1 [Compound 218]	< 300	> 90
C=C(F)C(=O)N1CC2(CCN(c3nc(OC4CCN(C)CC4)nc4c(OCC(F)(F)F)c(-c5c(C)ccc6[nH]ncc56)c(C5CC5)cc34)CC2)C1 [Compound 61]	< 300	> 90
C=CC(=O)N1CC2(CCN(c3nc(N4CC[C@@H](N(C)CC)C4)nc4c(OCC(F)(F)F)c(-c5c(C)ccc6[nH]ncc56)c(C5CC5)cc34)CC2)C1 [Compound 188]	< 300	> 90
C=C(F)C(=O)N1CC2(CCN(c3nc(OC4CCC5(CC4)CN(CCOC)C5)nc4c(OCC(F)(F)F)c(-c5c(C)ccc6[nH]ncc56)c(C5CC5)cc34)CC2)C1 [Compound 138]	< 300	> 90
C=CC(=O)N1CC2(CCN(c3nc(OC4CCN(CCOC)CC4)nc4c(OCC(F)(F)F)c(-c5c(F)ccc6[nH]cnc56)c(C5CC5)cc34)CC2)C1 [Compound 37]	300 to 1000	50 to 90
C=CC(=O)N1CC2(CCN(c3nc(N4CC(N5CCC[C@@H]5CO)C4)nc4c(OCC(F)(F)F)c(-c5c(C)ccc6[nH]ncc56)c(C5CC5)cc34)CC2)C1 [Compound 251]	< 300	> 90
C=C(F)C(=O)N1CC2(CCN(c3nc(OC4CCN(CCOC)CC4)nc4c(OCC(F)(F)F)c(-c5c(C)ccc6nc[nH]c(=O)c56)c(C5CC5)cc34)CC2)C1 [Compound 44]	< 300	> 90
C=CC(=O)N1CC2(CCN(c3nc(N4CCC5(CCN(CCOC)C5)CC4)nc4c(OCC(F)(F)F)c(-c5c(C)ccc6[nH]ncc56)c(C5CC5)cc34)CC2)C1 [Compound 105]	< 300	> 90
C=CC(=O)N1CC2(CCN(c3nc(OC4CC5(CCN(C)CC5)C4)nc4c(OCC(F)(F)F)c(-c5c(C)ccc6[nH]ncc56)c(C5CC5)cc34)CC2)C1 [Compound 129]	< 300	> 90
C=CC(=O)N1CC2(CCN(c3nc(OC4C5CCC4CS(=O)(=O)C5)nc4c(OCC(F)(F)F)c(-c5c(C)ccc6[nH]ncc56)c(C5CC5)cc34)CC2)C1 (stereo not shown) [Compound 313]	< 300	> 90
C=CC(=O)N1CC2(CCN(c3nc(N4CC(N5CCC[C@H]5C)C4)nc4c(OCC(F)(F)F)c(-c5c(C)ccc6[nH]ncc56)c(C5CC5)cc34)CC2)C1 [Compound 245]	< 300	> 90
C=CC(=O)N1CC2(CCN(c3nc(OC4CC5CCC4N5C)nc4c(OCC(F)(F)F)c(-c5c(C)ccc6[nH]ncc56)c(C5CC5)cc34)CC2)C1 (stereo not shown) [Compound 308]	< 300	> 90
C=CC(=O)N1CC2(CCN(c3nc(N(C)CCN4CC(O)C4)nc4c(OCC(F)(F)F)c(-c5c(C)ccc6[nH]ncc56)c(C5CC5)cc34)CC2)C1 [Compound 229]	< 300	> 90
C=CC(=O)N1CC2(CCN(c3nc(OC4CCN(CCOC)CC4)nc4c(OCC(F)(F)F)c(-c5c(C)ccc6[nH]nnc56)c(C5CC5)cc34)CC2)C1 [Compound 39]	< 300	> 90
